# “Also recorded” adds a separate entry of the source. Where two headings read alike, the source gives them in different places. Residues, ends and D or L forms follow the SMILES beside them.
# Legend:
# [1] = system: B. anthracis Sterne 7702 spores; assay type: cell-based, Bacillus anthracis
# [2] = system: human RBCs
# [3] = system: CXCR3-expressing human T-cells; assay type: cell-based
# [4] = system: primary human T-cells
# [5] = system: K. pneumoniae BL13802
# [6] = system: B. anthracis Sterne 7702 bacilli (wild-type)
# [7] = system: B. anthracis Sterne 7702 ΔftsX bacilli
# [8] = pH 7.4
# [9] = system: E. cloacae BL36213; assay type: cell-based, Enterobacter cloacae
# [10] = system: mcr-1-positive E. coli FI-4531, E. coli J53 and K. pneumoniae 13883; assay type: cell-based, Escherichia coli; Klebsiella pneumoniae
# [11] = system: K. pneumoniae BA2664 (mutated pmrB); assay type: cell-based, Klebsiella pneumoniae
# [12] = system: N. gonorrhoeae H041; assay type: cell-based, Neisseria gonorrhoeae
# [13] = system: S. aureus LAC; assay type: cell-based, Staphylococcus aureus
# [14] = system: N. gonorrhoeae FA1090; assay type: cell-based, Neisseria gonorrhoeae
# [15] = system: E. faecium AR0575; assay type: cell-based, Enterococcus faecium
# [16] = system: K. pneumoniae MS84 (disrupted mgrB); assay type: cell-based, Klebsiella pneumoniae
# [17] = system: A. baumannii AR0304; assay type: cell-based, Acinetobacter baumannii
compound,measurement,setting,value
EIIATMKKKGEKRCL [P5],decrease of heat-treated cfu counts versus initial spore inoculum,[1],~200 fold
same,increase of cfu counts without heat treatment versus initial spore inoculum,[1],more than 10 fold
same,hemolysis,[2],negligible hemolysis
same,T-cell migration,[3],did not elicit T-cell migration
same,percentage of dead cells,[4],less than 5%
KNLLKAVSKERSKRSP [P8],% survival (cfu/ml),[5],efficiently killed K. pneumoniae
Melittin [reference compound],hemolysis,[2],high levels of hemolysis
PESKAIK(S5A)LLK(S5A)VSKERSKRSP [pre-stapled peptide P9],EC50,[6],4.3 ± 0.4 µM
same,EC50,[7],5 ± 1.2 µM
PESKAIKNLLKAVSKERSKRSP [P9],secondary structure content: antiparallel β-sheet,[8],12%
same,secondary structure content: turn,[8],18%
same,secondary structure content: α-helix,[8],35%
same,bacterial killing (in words),[9],lost its capacity to kill any of the isolates examined; also recorded: except E. cloacae
same,hemolysis,[2],negligible hemolysis
same,bacterial killing (in words),[10],undiminished
same,% survival (cfu/ml),[5],efficiently killed K. pneumoniae
same,bacterial survival (RFU),[5],abolished the ability
same,bacterial killing (in words),[11],but not peptide P9
same,bacterial killing (in words),[12],reductions in bacterial viability were more modest
same,bacterial killing (in words),[13],lost its capacity to kill any of the isolates examined; also recorded: little to no effect on the viability
same,bacterial killing (in words),[14],reductions in bacterial viability were more modest
same,bacterial killing (in words),[15],lost its capacity to kill any of the isolates examined; also recorded: little to no effect on the viability
same,bacterial killing (in words),[16],but not peptide P9
same,percentage of dead cells,[4],less than 5%
CC[C@H](C)[C@H](NC(=O)[C@H](CO)NC(=O)[C@@H](NC(=O)[C@H](CS)NC(=O)[C@@H](NC(=O)[C@H](CS)NC(=O)[C@H](CCCNC(=N)N)NC(=O)[C@@H](NC(=O)[C@@H](NC(=O)[C@H](CCCNC(=N)N)NC(=O)[C@H](CO)NC(=O)[C@H](CC(C)C)NC(=O)[C@@H]1CCCN1C(=O)[C@@H](N)C(C)C)[C@@H](C)O)C(C)C)[C@@H](C)O)[C@@H](C)CC)C(N)=O [P1] (H-VPLSRTVRCTCISI-NH2),EC50,"[6]; Sterne 7702 bacilli (wild-type, 4 h)",18.1 ± 0.3 µM
same,hemolysis,[2],negligible hemolysis
same,EC50,"[5]; BL13802, 2 h",13.4 ± 1.2 µM
same,EC50,"[7]; Sterne 7702 ΔftsX bacilli, 4 h",53.1 ± 0.8 µM
same,percentage of dead cells,[4],less than 5%
CXCL10,chemotactic index (CI),[3],approximately 6
PESKAIK(S5A)LLK(S5A)VSKERSKRSP (sidechain bridge or staple) [stapled peptide P9],EC50,[6],8.5 ± 0.9 µM
same,EC50,[6]; read-out: EC50 values (as stated in running text),4 to 5 µM
same,viability of ungerminated spores compared to the initial inoculum,[1],modest reductions in the viability of ungerminated spores
same,hemolysis,[2],neither pre-stapled nor stapled peptide P9 exerted hemolytic effects
same,bacterial killing (in words),[17],particularly susceptible
same,bacterial killing (in words),[10],killed colistin-resistant K. pneumoniae and E. coli strains
same,bacterial killing (in words),[11],killed colistin-resistant K. pneumoniae
same,bacterial killing (in words),[12],particularly susceptible
same,bacterial killing (in words),[13],particularly susceptible
same,EC50,[7],9.6 ± 1 µM
same,bacterial killing (in words),[14],particularly susceptible
same,bacterial killing (in words),[15],particularly susceptible
same,bacterial killing (in words),[16],killed colistin-resistant K. pneumoniae
same,cytotoxic effects (dead cells),[4],greatly reduced
same,percentage of dead cells,[4],~45%
TISVCPTLRRIVSC [P1scram],"bacterial viability, % survival (RFU)",[6],abolished antimicrobial activity

# From PMC9841529 (ACS Infectious Diseases, 2022)
